Where two headings read alike, the source gives them in different places.
How the values were obtained:
human CHK1 (FL-CHK1) = target: T1, human CHK1 (FL-CHK1) (Homo sapiens, UniProt O14757); test: CHK1 coupled spectrophotometric assay; format: biochemical; conditions: read-out: CHK -1* (% inhibition)
T1 construct: C-terminally His-tagged full-length human CHK1 (FL-CHK1) was expressed using the baculovirus/insect cell system; made in house; host or cells: baculovirus/insect cell system
T1 sequence (O14757 1-476): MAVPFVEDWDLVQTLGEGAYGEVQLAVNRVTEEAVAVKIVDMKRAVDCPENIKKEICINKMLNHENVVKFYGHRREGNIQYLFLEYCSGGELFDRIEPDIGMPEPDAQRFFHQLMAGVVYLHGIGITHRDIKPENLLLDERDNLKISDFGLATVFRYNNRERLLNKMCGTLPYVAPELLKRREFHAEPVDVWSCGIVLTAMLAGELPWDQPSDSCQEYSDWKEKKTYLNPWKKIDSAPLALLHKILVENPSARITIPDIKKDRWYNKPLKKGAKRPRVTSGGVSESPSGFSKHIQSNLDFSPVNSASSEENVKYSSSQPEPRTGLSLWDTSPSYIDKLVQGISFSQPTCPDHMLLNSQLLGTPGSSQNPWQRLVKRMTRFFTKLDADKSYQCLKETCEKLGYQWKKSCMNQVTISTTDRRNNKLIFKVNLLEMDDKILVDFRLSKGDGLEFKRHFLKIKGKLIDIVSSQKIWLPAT
How it was run: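 His-tagged full-length human CHK1 from baculovirus/insect cells, 10 nM, phosphorylating Syntide-2. ADP formation coupled via PK/LDH with PEP to NADH oxidation, followed as absorbance decrease at 340 nm. Ki from initial rates at varying compound concentrations.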

CDK2/Cyclin A complex = CDK2/Cyclin A complex (Homo sapiens, UniProt P24941); test: CDK2/Cyclin A assay ([32P]ATP incorporation into Rb fragment); format: biochemical; conditions: read-out: CDK2 * (% inhibition)
[1] = target: T2, phosphorylated Tie-2 (aa 775-1122) (Homo sapiens, UniProt Q02763); test: TIE-2 spectrophotometric assay; format: biochemical; conditions: Table 5; 1 µM; bold values spectrophotometric assay, non-bolded DELFIA assay (bold not visible here); read-out: % Inhibition @ 1 µM Tie2-P
T2 construct: 4 to 12 nM phosphorylated Tie-2 (aa 775-1122); made in house; host or cells: insect cells
T2 sequence (Q02763 775-1122): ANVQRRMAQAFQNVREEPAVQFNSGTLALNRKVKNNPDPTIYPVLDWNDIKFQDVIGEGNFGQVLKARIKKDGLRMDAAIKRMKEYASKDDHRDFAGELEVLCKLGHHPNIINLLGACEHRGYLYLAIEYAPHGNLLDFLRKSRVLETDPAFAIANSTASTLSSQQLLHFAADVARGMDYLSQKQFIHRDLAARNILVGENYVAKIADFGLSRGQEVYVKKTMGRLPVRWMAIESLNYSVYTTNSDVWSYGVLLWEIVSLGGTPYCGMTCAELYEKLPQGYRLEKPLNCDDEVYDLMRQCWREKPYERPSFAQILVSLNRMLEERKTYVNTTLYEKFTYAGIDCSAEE
How it was run: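 Human phosphorylated Tie-2 kinase activity was measured spectrophotometrically by coupling ADP formation, from phosphoryl transfer to poly(Glu4 Tyr), to NADH oxidation via pyruvate kinase and lactate dehydrogenase. Absorbance loss at 340 nm was read on a Beckman DU650. Reactions held 1 mM phosphoenolpyruvate, 0.24 mM NADH, 40 mM MgCl2, 5 mM DTT, 0.5 mM ATP, and 15 units/mL each of PK and LDH in 100 mM HEPES, pH 7.5.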

[2] = tested on: human umbilical vein endothelial cells (HUVEC); test: HUVEC proliferation assay (VEGF-stimulated, MTT); format: cell-based; conditions: Homo sapiens, HUVEC, Table 1
LCK tyrosine kinase = LCK tyrosine kinase (Homo sapiens, UniProt P06239, C224D/P223M); test: LCK spectrophotometric assay; format: biochemical; conditions: Table 1; compound concentration 1 µM; read-out: Lck-P* (% inhibition)
Sequence of LCK tyrosine kinase (P06239 223-509 P223M/C224D): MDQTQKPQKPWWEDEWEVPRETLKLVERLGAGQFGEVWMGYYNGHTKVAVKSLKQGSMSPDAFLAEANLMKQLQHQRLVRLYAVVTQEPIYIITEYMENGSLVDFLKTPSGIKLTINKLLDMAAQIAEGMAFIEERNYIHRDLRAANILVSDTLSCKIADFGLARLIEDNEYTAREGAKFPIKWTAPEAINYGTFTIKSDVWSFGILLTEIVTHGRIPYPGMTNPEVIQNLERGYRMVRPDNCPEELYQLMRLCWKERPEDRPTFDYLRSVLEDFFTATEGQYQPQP
Method: The spectrophotometric assay was carried out as described above for VEGF-R2, except for the following changes in concentration: LCK = 60 nM, MgCl2 = 0 mM, poly(E4Y1) = 20 mM.

human FAK (FAKcd409) = target: T3, human FAK (FAKcd409) (Homo sapiens, UniProt Q05397, P410T); test: FAK fluorescence polarization assay; format: biochemical; conditions: Table 5; 1 µM; read-out: % Inhibition @ 1 µM FAK
T3 construct: comprises residues methionine 409 to glutamate 689; made in house; host or cells: baculovirus vector expression system (insect cells)
T3 sequence (Q05397 409-689 P410T): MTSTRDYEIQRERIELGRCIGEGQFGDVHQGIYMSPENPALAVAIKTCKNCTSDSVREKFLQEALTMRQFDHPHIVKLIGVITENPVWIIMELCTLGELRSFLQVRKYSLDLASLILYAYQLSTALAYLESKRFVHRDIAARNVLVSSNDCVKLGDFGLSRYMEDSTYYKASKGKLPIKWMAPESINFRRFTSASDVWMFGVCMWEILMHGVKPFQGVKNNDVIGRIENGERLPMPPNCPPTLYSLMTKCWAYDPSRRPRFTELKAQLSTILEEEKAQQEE
How it was run: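 Baculovirus-expressed FAK catalytic domain (FAKcd409, 5 nM) phosphorylating 1 mg/ml poly Glu-Tyr (4:1) with 1 mM ATP in 100 mM Hepes pH 7.5, 10 mM MgCl2, 1 mM DTT. Stopped with EDTA; fluorescent peptide and anti-phosphotyrosine antibody added, product detected by fluorescence polarization.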

CDK4/Cyclin D3 complex = CDK4/Cyclin D3 complex (Homo sapiens, UniProt P11802); test: biochemical; conditions: read-out: CDK4 * (% inhibition)
Sequence of CDK4/Cyclin D3 complex (P11802 whole entry): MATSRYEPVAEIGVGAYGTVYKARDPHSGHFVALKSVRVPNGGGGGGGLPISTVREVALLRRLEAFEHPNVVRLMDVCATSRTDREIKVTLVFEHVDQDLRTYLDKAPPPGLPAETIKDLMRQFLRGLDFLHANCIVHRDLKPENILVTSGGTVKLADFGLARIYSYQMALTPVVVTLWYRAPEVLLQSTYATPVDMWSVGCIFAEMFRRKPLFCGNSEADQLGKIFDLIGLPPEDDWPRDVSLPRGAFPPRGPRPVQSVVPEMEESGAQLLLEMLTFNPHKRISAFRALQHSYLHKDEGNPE
Sequence of CDK4/Cyclin D3 complex (P30281 whole entry partner): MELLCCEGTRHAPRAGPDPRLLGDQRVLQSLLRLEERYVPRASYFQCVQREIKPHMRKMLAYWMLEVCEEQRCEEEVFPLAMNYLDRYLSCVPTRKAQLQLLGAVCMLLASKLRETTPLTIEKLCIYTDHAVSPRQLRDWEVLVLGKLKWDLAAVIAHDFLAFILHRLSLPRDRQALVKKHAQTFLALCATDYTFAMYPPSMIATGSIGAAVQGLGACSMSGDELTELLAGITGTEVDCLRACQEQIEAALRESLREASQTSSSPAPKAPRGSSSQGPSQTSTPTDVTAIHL

[3] = + albumin, read-out: HUVEC + albumin IC50

| SMILES | inhibition at 1 µM (human CHK1 (FL-CHK1)) | inhibition at 1 µM (CDK2/Cyclin A complex) | inhibition at 1 µM [1] | IC50 [2, 3] | IC50 ([2]; read-out: HUVEC IC50) | inhibition at 1 µM (LCK tyrosine kinase) | inhibition at 1 µM (human FAK (FAKcd409)) | inhibition at 1 µM (CDK4/Cyclin D3 complex) |
| --- | --- | --- | --- | --- | --- | --- | --- | --- |
| CCn1nc(C)cc1C(=O)Nc1cccc(Oc2ccc3c(/C=C/c4ccccn4)n[nH]c3c2)c1 [Reference Example 31(d), 6-[3-((1-Ethyl-3-methyl-1H-pyrazol-5-yl)carboxamido)phenoxy]-3-E-[2-(pridin-2-yl)ethenyl]-1H-indazole] | 0% | 5% | 46% | ~13 nM | 1.3 nM | 52% | 6% | 9% |
| C#CCNC(=O)c1ccccc1Sc1ccc2c(/C=C/c3ccccn3)n[nH]c2c1 [Reference Example 35(cc), 6-[2-(2-Propynylcarbamoyl)phenylsulfany]-3-E-[2-(pyridin-2-yl)ethenyl]-1H-indazole] | 0% | 5% | 47% | 1.6 nM | 0.05 nM | 15% | 7% | 6% |
| CCONC(=O)c1ccccc1Sc1ccc2c(/C=C/c3ccccn3)n[nH]c2c1 [Reference Example 35(dd), 6-[2-(ethoxycarbamoyl)phenylsufanyl]-3-E-[2-(pyridin-2-yl)ethenyl]-1H-indazole] | 0% | 7% | 48% | 2.9 nM | 0.18 nM | 17% | 4% | 8% |
| CC(C)ONC(=O)c1ccccc1Sc1ccc2c(/C=C/c3ccccn3)n[nH]c2c1 [Reference Example 35(k)] | 0% | 8% | 55% | 2.2 nM |  | 6% | 7% | 7% |
| O=C(NNc1ccccn1)c1ccccc1Sc1ccc2c(/C=C/c3ccccn3)n[nH]c2c1 [Reference Example 35(n), 6-[2-(N^2-(pyrid-2-ylhydrazino)carbonyl)phenylsulfanyl]-3-E-[2-(pyridin-2-yl)ethenyl]-1H-indazole] | 23% | 4% | 82% | 11 nM | 0.11 nM | 58% | 1% | 10% |
| CCn1nc(C)cc1C(=O)Nc1cccc(C(=O)c2ccc3c(/C=C/c4ccccn4)n[nH]c3c2)c1 [Reference Example 41(a), 6-[3-((1-Ethyl-3-methyl-1H-pyrazol-5-yl)carboxamido)benzoyl]. 3-E-[2-(pyridin-2-yl)ethenyl]-1H-indazole] | 0% | 0% | 50% | 4.4 nM | 0.48 nM | 50% | 5% | 6% |
| CCn1nc(C)cc1C(=O)Nc1cc(C(=O)c2ccc3c(/C=C/c4ccccn4)n[nH]c3c2)ccc1C [Reference Example 41(ee), 6-[3-((1-Ethyl-3-methyl-1H-pyrazol-5-yl)carboxamido)-4-methylbenzoyl]-3-E-[2-(pyridin-2-yl)ethenyl]-1H-indazole] | 0% | 0% | 41% | 4.3 nM | 0.24 nM | 13% | 7% | 2% |
| CCCn1nc(C)cc1C(=O)Nc1cccc(C(=O)c2ccc3c(/C=C/c4ccccn4)n[nH]c3c2)c1 [Reference Example 41(r)] | 0% | 0% | 56% | 11 nM |  | 55% | 5% | 5% |
